Assay results from US20230158048A1, “COMBINATIONS” (Recurium IP Holdings, LLC, priority 2020, published 2023).

How the values were obtained:
[1] = tested on: ZR-75-1 cells; experiment: CTG Assay (CellTiter-Glo Luminescent Cell Viability Assay), cell proliferation; assay type: cell-based; conditions: Homo sapiens, 160 nM, 72 h
Experimental: Cell proliferation was measured using the CellTiter-Glo® Luminescent Cell Viability Assay. The assay involved the addition of a single reagent (CellTiter-Glo® Reagent) directly to cells cultured in serum-supplemented medium. ZR-75-1 (ATCC® CRL-1500) cells were cultured according to ATCC recommendations and were seeded at 10,000 cells per well.
Compound 5A and Palbociclib were prepared as a DMSO stock solution (10 mM). Plates were incubated at 37° C., 5% CO2 for 72 h and then equilibrated at room temperature for approximately 30 min. An equal-volume amount of CellTiter-Glo® Reagent (100 μL) was added to each well. Plates were mixed for 2 min on an orbital shaker to induce cell lysis and then incubated at RT for 10 min to stabilize the luminescent signal. Luminescence (RLU (relative light unit)) was recorded using a SpectraMAX, M5e plate reader according to CellTiter-Glo protocol. Percent inhibition was calculated using the following formula: % inhibition=(RLU*100/(RLU of the cell background)). IC50 of each compound was calculated using GraphPad Prism by nonlinear regression analysis.

[2] = tested on: MCF-7 cells; experiment: Xenograft Tumor Model, MCF-7 (ER+ Breast cancer) mouse model; assay type: in vivo; conditions: MCF-7 xenograft mice, 50 mg/kg p.o.
Experimental: Mice were inoculated with MCF-7 cells subcutaneously on the 2nd right mammary fat pad with the single cell suspension of 95% viable tumor cells (1×10^7) in 100 μL DMEM Matrigel mixture (1:1 ratio) without serum for the tumor development. The treatment was started when the mean tumor size reached approximately 226 mm^3, with individual tumor size ranging from 185-245 mm^3. Animals were randomly distributed into treatment groups of 10 animals each and dosed with vehicle and indicated compounds at indicated dosage and frequency provided in FIG. 4 and Table 3. In FIG. 4, the bottom line with star is Compound 5A (200 mg/kg p.o. qd×24)+Palbociclib (50 mg/kg p.o. pd×24). Tumor volumes were evaluated twice per week to calculate tumor volume over time, and mice were weighed twice per week as a surrogate for signs of toxicity. Tumor growth inhibition (TGI) was calculated using the following equation TGI=(1−(Td−T0)/(Cd−C0))×100%. Td and Cd are the mean tumor volumes of the treated and control animals, and TO and C0 are the mean tumor volumes of the treated and control animals at the start of the experiment. The tumor regression was defined as individual tumor volume (TV) decrease (terminal TV compared to initial TV). The percent tumor regression was calculated using the formula: (1−(Td/T0))×100%.

SMILES: CC(=O)c1c(C)c2cnc(Nc3ccc(N4CCNCC4)cn3)nc2n(C2CCCC2)c1=O [Palbociclib]
- inhibition at 0.16 µM [1]: 20%
- TUMOR REGRESSION % (DAY 23) [2]: 0%
